Values joined by “and” are separate entries in the source; they are usually repeats but may differ in a detail not shown here. Equal values may be shown once.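 Growth conditions: 96-well plates. Treatment: test compound, 48 hours, 5 concentrations. Analysis: linear interpolation between bracketing concentrations; unreached endpoints set to highest concentration. Abbreviation: GI50, concentration required for 50% inhibition of growth. Definition used: TGI = concentration required for complete inhibition of growth.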

Test systems include PC-3 prostate; NCI/ADR-RES ovarian; MCF7 breast; T-47D breast; BT-549 breast.
Assay in all cases: NCI tumour cell line growth inhibition, 48 h

Consider `COc1ccc(-c2nn(-c3cccc(Cl)c3)cc2/C=C2\NC(=S)N(c3ccc(Cl)cc3)C2=O)cc1`, for which the GI50 in the assay on PC-3 prostate is 5.37 µM; in the assay on NCI/ADR-RES ovarian it was 5.51 µM; in the assay with MCF7 breast, 5.6 µM; in the assay on T-47D breast it was 3.61 µM; with BT-549 breast it was 4.46 µM. The TGI with PC-3 prostate is 21.6 µM; with NCI/ADR-RES ovarian, 14.5 µM; with MCF7 breast, above 25 µM; with T-47D breast it was 9.7 µM; in the assay on BT-549 breast, 11.6 µM.

`Cc1nc2ccccn2c1NC(=O)NN1C(=O)CSC1c1ccc(Cl)cc1` (stereo not given): the GI50 in the assay on PC-3 prostate, in the assay on NCI/ADR-RES ovarian, in the assay with MCF7 breast, in the assay on T-47D breast and with BT-549 breast was above 100 µM throughout. The TGI in the assay on PC-3 prostate, with NCI/ADR-RES ovarian, with MCF7 breast, in the assay with T-47D breast and in the assay on BT-549 breast was above 100 µM each time.

For `Clc1ccc(-c2cc(-c3ccccc3)nc(N3CCN(CCCNc4ccnc5cc(Cl)ccc45)CC3)n2)cc1`, the GI50 was 1.75 µM in the assay on NCI/ADR-RES ovarian, 1.63 µM in the assay with MCF7 breast, 1.14 µM with T-47D breast and 1.68 µM with BT-549 breast. Besides, the TGI in the assay on NCI/ADR-RES ovarian came out at 3.53 µM; in the assay with MCF7 breast, 3.81 µM; in the assay on T-47D breast, 3.38 µM; with BT-549 breast, 3.23 µM.

On to `Cc1cccc2c(C3=C(c4cn(C)c5ccccc45)C(=O)NC3=O)cn(C)c12`, for which the GI50 was 18.9 µM in the assay on PC-3 prostate; above 19.6 µM in the assay on NCI/ADR-RES ovarian; 9.03 µM in the assay on MCF7 breast; above 20 µM in the assay on T-47D breast; 12.7 µM in the assay with BT-549 breast. In addition, the TGI with PC-3 prostate, in the assay with NCI/ADR-RES ovarian, in the assay with MCF7 breast, with T-47D breast and in the assay with BT-549 breast was above 25 µM each time.

Take `CN(C)c1ccc(C(=S)c2ccc(N(C)C)cc2)cc1`: the GI50 with PC-3 prostate is 22.5 µM; in the assay with NCI/ADR-RES ovarian, 2.4 µM; in the assay on MCF7 breast it was 3.92 µM; in the assay on T-47D breast it was 6.34 µM; in the assay with BT-549 breast, 6.76 µM. The TGI in the assay with PC-3 prostate is above 100 µM; with NCI/ADR-RES ovarian it was 7.66 µM; in the assay with MCF7 breast, above 100 µM; with T-47D breast, above 100 µM; in the assay with BT-549 breast, 90.1 µM.

For the molecule `COc1cc2c(Oc3ccc(NC(=O)C4(C(=O)Nc5ccc(F)cc5)CC4)cc3F)ccnc2cc1OCCCN1CCOCC1`, the GI50 was 1.9 µM and 1.23 µM in the assay with PC-3 prostate; 1.98 µM in the assay on NCI/ADR-RES ovarian; 0.515 µM and 0.546 µM in the assay with MCF7 breast; 1.37 µM and 1.44 µM with T-47D breast; 1.82 µM and 2.78 µM with BT-549 breast. For the same molecule, the TGI in the assay with PC-3 prostate was 14.5 µM and > 10 µM; in the assay with NCI/ADR-RES ovarian it was above 10 µM; with MCF7 breast it was 2.03 µM and 3 µM; in the assay with T-47D breast, 3.63 µM and > 8.02 µM; in the assay on BT-549 breast it was 3.93 µM and > 9.51 µM.

As for `CC(=O)N[C@H](C)[C@@H](O)[C@@H](C)[C@@H]1OC(=O)/C=C/C=C(C)\C=C\[C@]2(C)C[C@@H](NS(C)(=O)=O)C=C[C@@H]2/C=C(C)/C=C/[C@H]1C`, the GI50 in the assay with PC-3 prostate is 0.00714 µM and 0.0129 µM; in the assay with NCI/ADR-RES ovarian, 0.235 µM and 0.127 µM; with MCF7 breast it was 0.00547 µM and 0.00591 µM; with T-47D breast, 0.00343 µM and 0.00506 µM; in the assay with BT-549 breast it was 0.00898 µM and 0.0242 µM. Besides, the TGI in the assay on PC-3 prostate, in the assay on NCI/ADR-RES ovarian, in the assay on MCF7 breast, in the assay on T-47D breast and with BT-549 breast was above 43.5 µM in each case.

`C[C@@H]1CC[C@H]2[C@@H](C)C(O)O[C@@H]3O[C@]4(C)CC[C@@H]1[C@]32OO4` (stereo not given in full): the GI50 was 0.0662 µM in the assay with PC-3 prostate; 0.581 µM in the assay on NCI/ADR-RES ovarian; 1.66 µM in the assay on MCF7 breast; 0.285 µM in the assay with T-47D breast; 0.721 µM with BT-549 breast. Moreover, the TGI was above 43.3 µM in the assay with PC-3 prostate, 12 µM with NCI/ADR-RES ovarian, 20.4 µM in the assay with MCF7 breast and 45.4 µM in the assay with BT-549 breast.

As to `Cc1ccc2c(c1)[n+](=O)c(C(=O)c1cccs1)c(C(F)(F)F)n2[O-]`, the GI50 was 0.528 µM and 1.38 µM in the assay with PC-3 prostate; 1.14 µM and 0.524 µM in the assay with NCI/ADR-RES ovarian; 0.875 µM and 0.456 µM in the assay on MCF7 breast; 1.55 µM and 0.183 µM in the assay with T-47D breast; 0.603 µM in the assay with BT-549 breast. In addition, the TGI is 10.3 µM and 10.1 µM in the assay on NCI/ADR-RES ovarian; 3.79 µM and 21.5 µM with MCF7 breast; 9.38 µM and 7.9 µM with T-47D breast; 1.97 µM with BT-549 breast.

Turning to `Cc1cc2c(cc1Cl)SC(N(c1ccccc1Cl)S(=O)(=O)c1ccc(Br)s1)=NS2(=O)=O`, the GI50 was 12.5 µM in the assay with PC-3 prostate, 17.2 µM in the assay with NCI/ADR-RES ovarian, 8.88 µM with MCF7 breast and 4.95 µM in the assay with T-47D breast. For the same molecule, the TGI was 29.7 µM in the assay on PC-3 prostate, 41.3 µM in the assay on NCI/ADR-RES ovarian, 28.8 µM with MCF7 breast and 23 µM in the assay with T-47D breast.

With `Cc1cc(S(=O)(=O)/N=C(\N)Nc2cccc(O)c2)c(SCc2ccccc2)cc1Cl`, the GI50 was 12.1 µM with PC-3 prostate; 26.5 µM in the assay on NCI/ADR-RES ovarian; 11.5 µM with MCF7 breast; 19.4 µM with T-47D breast; 19 µM in the assay with BT-549 breast. Besides, the TGI is above 100 µM in the assay with PC-3 prostate; 70.2 µM in the assay on NCI/ADR-RES ovarian; 78.9 µM in the assay on MCF7 breast; 75.7 µM in the assay with T-47D breast; 39.7 µM in the assay with BT-549 breast.

As for `Nc1nc(N)c2c(n1)NC(c1sc(Cl)nc1Cl)CC(c1ccccc1)=N2` (stereo not given), the GI50 is 5.89 µM in the assay with PC-3 prostate; 3.13 µM in the assay on NCI/ADR-RES ovarian; 3.56 µM with MCF7 breast; 3.35 µM with T-47D breast; 3.93 µM in the assay on BT-549 breast. Further, the TGI amounted to 24 µM with PC-3 prostate; 12.4 µM in the assay with NCI/ADR-RES ovarian; 20.4 µM in the assay on MCF7 breast; 22.1 µM in the assay on T-47D breast; 16.1 µM in the assay with BT-549 breast.

`COc1ccccc1-n1cnc(N)c1C(=O)c1cc(OC)c(OC)c(OC)c1`: the GI50 with PC-3 prostate was 3.51 µM; in the assay on NCI/ADR-RES ovarian it was 13.1 µM; with MCF7 breast it was 2.49 µM; with BT-549 breast, 3.55 µM. In addition, the TGI was above 100 µM with PC-3 prostate, above 100 µM in the assay on NCI/ADR-RES ovarian, above 100 µM in the assay with MCF7 breast and 66.2 µM in the assay on BT-549 breast.

Turning to `CC/C=C\C[C@H]1C/C=C2/C(=O)C=C[C@H]2C/C=C\CCCC(=O)O1`, the GI50 in the assay on PC-3 prostate is 3.13 µM; with NCI/ADR-RES ovarian, 1.47 µM; with MCF7 breast it was 2.21 µM; in the assay on BT-549 breast, 2.52 µM. Besides, the TGI in the assay with PC-3 prostate is 12.1 µM; with NCI/ADR-RES ovarian, above 50 µM; with MCF7 breast it was 12.4 µM; in the assay with BT-549 breast, 9.29 µM.

The values are drawn from PubChem BioAssay (NCI).
